The values that follow are results of earlier work, collected in patent US10695734B2, “Microcapsule comprising a polyester-urethane shell and a hydrophilic core material” (BASF SE, priority 2015, dated 2020).

Counter-ions that a name gives are not always drawn. Some results are limits rather than exact numbers.

The conditions of this series: at 20° C.

In the case of `COc1c(Cl)ccc(Cl)c1C(=O)O` [dicamba sodium salt], the water solubility is greater than 100 mg/mL. On to `O=C(O)CNCP(=O)(O)O` [glyphosate potassium salt], for which the water solubility was greater than 500 mg/mL.
